# Experimental data as given in US7071168B2, “Anti-cancer compounds and methods related thereto” (The Regents of the University of Colorado, priority 1998, dated 2006).
# System: SCLC strain SHP-77
# Assay: Colorimetric tetrazolium (MTT) assay for cell survival, SCLC strain SHP-77
# Type: cell-based, human
# Details: SCLC strain SHP-77 in vitro
# Experimental: (§1) In general, Anti-bradykinin activity was determined by the classical guinea pig ileum assay and on Chinese hamster ovary (CHO) cells expressing cloned human bradykinin B2 receptors. Anti-tumor activity was determined on cultured human cancer cell lines using the standard tetrazolium (MTT) assay.
# Cell growth and survival were measured by a rapid colorimetric assay based on the tetrazolium salt MTT (3-(4,5-dimethylthiazol-2-yl)-2,5-diphenyl tetrazolium bromide) (Mosmann, J Immunol. Methods 65: 55–63, 1983, with minor modifications). Briefly, 1,000 normal lung fibroblasts or normal epithelial BEAS-2B cells, 1,000 or 5,000 viable non-SCLC cells or 10,000 viable SCLC cells were plated in 100 μL of growth medium in 96-well flat-bottomed microtiter plates. Cells were incubated overnight to allow recovery. Compounds to be tested were added to the cells in triplicate in a range of concentrations and the cells were incubated at 37° C., 5% CO2, with 100% humidity. Control cells were treated in the same way without antagonists. […] Plates were incubated for 4 days, allowing sufficient time for cell replication and compound-induced cell death to occur. On day 5, 25 μL of a 2 mg/mL solution of MTT (Sigma) dissolved in RMPI-1640was added to each well. The plate was incubated for 4 h at 37° C. The supernate was removed and the blue formazan complex was dissolved by adding 100 μL of 0.02 N HCl in 75% isopropanol to all wells. Absorbance was immediately determined using a scanning multiwell plate reader. B9870 caused 50% cell death at a concentration of 0.15 μM under these conditions.
row,Compound,MTT: ED50 for killing of SCLC strain SHP-77 in vitro
1,CC1(C)CC(NC(=O)C(Cc2ccc3ccccc3c2)NC(=O)CCCCCNC(=O)c2cc(C(=O)NCCCCCC(=O)NC(Cc3ccc4ccccc4c3)C(=O)NC3CC(C)(C)NC(C)(C)C3)cc(C(=O)NCCCCCC(=O)NC(Cc3ccc4ccccc4c3)C(=O)NC3CC(C)(C)NC(C)(C)C3)c2)CC(C)(C)N1 (stereo not shown) [M290-2],20 µM
2,O=C(CCCCCCCCCCC(=O)N[C@@H](Cc1cccnc1)C(=O)N[C@@H](Cc1ccc2ccccc2c1)C(=O)NC1CCCCC1)N[C@@H](Cc1cccnc1)C(=O)N[C@@H](Cc1ccc2ccccc2c1)C(=O)NC1CCCCC1 [M460],15 µM
3,O=C(C=Cc1c(F)c(F)c(F)c(F)c1F)NC(Cc1ccc2ccccc2c1)C(=O)NCc1cccnc1 (stereo not shown) [M466],Inact
4,CN(C)c1ccc(CNC(=O)C(Cc2ccc(OCc3c(Cl)cccc3Cl)cc2)NC(=O)C=Cc2c(F)c(F)c(F)c(F)c2F)cc1 (stereo not shown) [M798],37 µM

# Same assay, conditions: Table 1; SHP-77, MTT, 4 days
row,Compound,MTT: ED50 for killing of SCLC strain SHP-77 in vitro
1,Pya-hPhe-Arg [M540],>100 µM
2,DArg-Arg-Aud-DIgl-PFF-Arg [M844],12 µM
3,ζ-SUB-(ApC-F5F-Arg)2 [M926],Inact
4,α-DDD-(K-DArg-Arg-Eac-Ser-DF5F-Oic-Arg)2 [M950],6.7 µM
5,α-DDD-(ApC-F5F-Arg)2 [M930],Inact
6,DDD-(DArg-Arg-Aud-DIgl-hPhe-Arg)2 [M786],3.2 µM
7,F5c-PCF-Arg [M714],Inact

# System: bradykinin response of isolated guinea pig ileum
# Assay: Anti-bradykinin activity on isolated guinea pig ileum
# Details: Table 1; higher numbers indicate higher potency
# Experimental: as §1
# Male Hartley guinea pigs that had been deprived of food overnight were sacrificed, and sections of terminal ileum, 25 mm in length, were dissected, attached to tissue holders and immersed in 10 ml tissue baths containing Krebs' solution bubbled with 95% O2/5% CO2. Tissues were placed under 1 g tension and incubated for 1 h equilibration. Concentration-effect curves were constructed to bradykinin in the absence and presence of new compounds.
row,Compound,GPI: pA2 for bradykinin antagonist activity on isolated guinea pig ileum
1,F5c-Pac-Arg [M398],Inact
2,Aaa-DIgl-hPhe-Arg [M772],4.9
3,F5c-Dpr(Paa)-Arg [M690],4.8
4,F5c-Lys{(CH3)3}-Arg [M388],4.9
5,F5c-Bip-Arg [M394],4.7
6,Gun-Ica-Arg [M88],4.7
7,Dcg-Ile-Arg [M84],5.1
8,Ac-PaF(Dcg)-p-ABz-Arg [M146-2],4.9
9,ε-SUB-(Lys-DArg-Arg-Eac-Ser-DF5F-Nc7G-Arg)2 [M1038],6.4
10,Dhq-DArg-Arg-Pro-Hyp-Gly-CpG-Ser-DCpG-CpG-Arg [B9074],6.3
11,"Dcg-(D,L)Ata-Arg [M96]",4.7
12,F5c-Ana-Arg [M392],4.5
13,Dcg-Atpc-Arg [M232-1],4.7
14,Dcg-2-Nal-Atpc-Arg [M232-3],5.1
15,Arg-Eac-DIgl-Ana-Arg [M406],Inact
16,Ac-PdF-Arg [M118-3],5.4
17,Dcg-Trx-Arg [M134],4.9
18,DArg-Arg-Pro-Hyp-Gly-CpG-Ser-DCpG-CpG-Arg [B8838],7.0
19,Ac-PaF(Mcg)-p-ABz-Arg [M146-1],Inact
20,F5c-Phe-Arg [M410],5.4
21,"N=C(N)NCCCC(NC(=O)C=Cc1c(F)c(F)c(F)c(F)c1F)C(=O)O (stereo not shown) [M370, F5c-Arg]",4.8
22,Dcg-Ac6c-Arg [M86],5.0
23,Ac-Pac-Gly-m-Abz-2-Nal-Arg [M198],5.1
24,DArg-Arg-Pro-Hyp-Gly-Igl-Ser-DIgl-Nc7G-Arg [B10010],7.7
25,Mcg-Pac-Gly-m-ABz-2-Nal-Arg [M200-1],Inact
26,Gun-2-Nal-Arg [M20],4.6

# Same assay, conditions: isolated guinea pig ileum; pD2 of bradykinin is 7.4; higher numbers indicate higher potency
row,Compound,GPI: pA2 for bradykinin antagonist activity on isolated guinea pig ileum
1,O=C(C[C@H](NC(=O)[C@H](Cc1ccc2ccccc2c1)NC(=NC1CCCCC1)NC1CCCCC1)C(=O)O)NC1CN2CCC1CC2 (stereo partly shown) [M188B],5.5
2,CC1(C)CC(NC(=O)[C@H](Cc2ccc3ccccc3c2)NC(=O)C23CC4CC(CC(C4)C2)C3)CC(C)(C)N1 [M250],5.2
3,CC1(C)C=C(C(=O)NCCNC(=O)[C@H](Cc2ccc3ccccc3c2)NC(=NC2CCCCC2)NC2CCCCC2)C(C)(C)N1 [M270],6.1
4,O=C(O)C(Cc1cccnc1)NC(=O)C(Cc1ccc2ccccc2c1)NC(=NC1CCCCC1)NC1CCCCC1 (stereo not shown) [M104],4.9
5,N=C(Nc1ccc(CC(NC(=O)c2ccc3ccccc3c2)C(=O)O)cc1)NC1CCCCC1 (stereo not shown) [M168-1],4.8
6,N=C(N)NCCCCCC(=O)NC(Cc1ccc2ccccc2c1)C(=O)NC(Cc1ccc(NC(=N)N)cc1)C(=O)O (stereo not shown) [M8],Inact
7,"O=C(O)CC(NC(=O)C(Cc1ccc2ccccc2c1)NC(=NC1CCCCC1)NC1CCCCC1)C(=O)NC1CN2CCC1CC2 (single isomer, unassigned) [M336-1]",5.1
8,CC(=O)Nc1ccc(C=CC(=O)NCC(=O)Nc2cccc(C(=O)NC(Cc3ccc4ccccc4c3)C(=O)O)c2)cc1 (stereo not shown) [M204],5.0
9,CC1(C)CC(NC(=O)C(CC(=O)O)NC(=O)Cc2ccc(NC(=NC3CCCCC3)NC3CCCCC3)cc2)CC(C)(C)N1 (stereo not shown) [M362],4.9
10,"O=C(O)CC(NC(=O)C(Cc1ccc2ccccc2c1)NC(=NC1CCCCC1)NC1CCCCC1)C(=O)NC1CN2CCC1CC2 (single isomer, unassigned) [M336-2]",5.4
11,CC1(C)CC(NC(=O)C(CCC(=O)O)NC(=O)C(Cc2ccc3ccccc3c2)NC(=NC2CCCCC2)NC2CCCCC2)CC(C)(C)N1 (stereo not shown) [M350],5.0
12,O=C(C=Cc1c(F)c(F)c(F)c(F)c1F)Nc1ccc(C(=O)N[C@@H](Cc2ccc3ccccc3c2)C(=O)O)cc1 [M180],5.1
13,O=C(O)Cc1ccc(NC(=O)C(Cc2ccc3ccccc3c2)NC(=NC2CCCCC2)NC2CCCCC2)cc1 (stereo not shown) [M30],5.4
14,O=C(O)CC(NC(=NC1CCCCC1)NC1CCCCC1)C(=O)NC1CN2CCC1CC2 (stereo not shown) [M174],Inact
15,O=C(C=Cc1c(F)c(F)c(F)c(F)c1F)NCC(=O)Nc1cccc(C(=O)N[C@@H](Cc2ccc3ccccc3c2)C(=O)O)c1 [M202],5.1
16,N=C(N)Nc1ccc(CC(NC(=O)C(Cc2ccc3ccccc3c2)NC(=NC2CCCCC2)NC2CCCCC2)C(=O)O)cc1 (stereo not shown) [M354],5.2
17,O=C(O)Cc1ccc(NC(=O)C(Cc2ccc3ccccc3c2)NC(=NC2CCCCC2)NC2CCCCC2)cc1 (stereo not shown) [M36],5.0
18,N=C(Nc1ccc(CC(=O)Nc2cccc(C(=O)O)c2)cc1)NC1CCCCC1 [M122-1],5.0
